Reference: ChEMBL document CHEMBL1151036, “Synthesis and HIV-1 inhibition of novel benzimidazole derivatives” (Bioorg Med Chem Lett, 1995)

molecular target: Human immunodeficiency virus type 1 reverse transcriptase (Human immunodeficiency virus 1) (UniProt Q72547); assay: Compound was tested for % inhibition of HIV-1 reverse transcriptase (RT); details: concentration not given here

SMILES | inhibition
CCCOn1c(CC)nc2c(C)cccc21 | 66%
CCCOn1c(CC)nc2ccc(Cl)cc21 | 50%
CC(C)=CCN1Cc2cc(Cl)cc3[nH]c(=S)n(c23)C[C@@H]1C | 50%

molecular target: Human immunodeficiency virus type 1 reverse transcriptase (Human immunodeficiency virus 1) (UniProt Q72547); assay: Concentration required for inhibition of HIV-1 reverse transcriptase (RT); details: not given

SMILES | Concentration
CCCOn1c(CC)nc2c(C)cccc21 | 100 µM
CCCOn1c(CC)nc2ccc(Cl)cc21 | 10 µM
CC(C)=CCN1Cc2cc(Cl)cc3[nH]c(=S)n(c23)C[C@@H]1C | 0.16 µM

test system: not listed separately; assay: Selectivity ratio of TC50 to that of EC50; value ranges from 33-50; assay type: functional; details: not given

SMILES | Ratio
CCCOn1c(CC)nc2ccccc21 | 33

test system: C8166; assay: Compound was tested for toxicity against HIV-111B in C8166 cells; value ranges from 20-30 uM; assay type: functional; details: Homo sapiens, read-out: TC50 (the source's name)

SMILES | CC50
CCCOn1c(CC)nc2ccc(C)cc21 | 20 µM

test system: C8166; assay: Compound was tested for toxicity against HIV-111B in C8166 cells; assay type: functional; details: Homo sapiens, read-out: TC50 (the source's name)

SMILES | CC50
Cc1cn([C@H]2C[C@H](N=[N+]=[N-])[C@@H](CO)O2)c(=O)[nH]c1=O [ZIDOVUDINE] | > 1000 µM
CCCOn1c(CC)nc2c(C)cccc21 | 1000 µM
CCCn1c(SC)nc2c(CBr)cccc21 | 80 µM
CCCOn1c(CC)nc2ccccc21 | 100 µM
CCCOn1c(CC)nc2ccc(OC)cc21 | 100 µM
CCCOn1c(CC)nc2ccc(Cl)cc21 | 40 µM
CC(C)=CCN1Cc2cc(Cl)cc3[nH]c(=S)n(c23)C[C@@H]1C | 62 µM
CCCn1c(SC)nc2c(C)cccc21 | 100 µM

test system: not listed separately; assay: Selectivity ratio of TC50 to that of EC50; assay type: functional; details: not given

SMILES | Ratio
CCCOn1c(CC)nc2c(C)cccc21 | 167
CCCn1c(SC)nc2c(CBr)cccc21 | 10
CCCOn1c(CC)nc2ccc(OC)cc21 | 31
CCCOn1c(CC)nc2ccc(Cl)cc21 | 67
CC(C)=CCN1Cc2cc(Cl)cc3[nH]c(=S)n(c23)C[C@@H]1C | 31000
CCCn1c(SC)nc2c(C)cccc21 | 25

test system: not listed separately; assay: Selectivity ratio of TC50 to that of EC50; value ranges from 12.5-19; assay type: functional; details: not given

SMILES | Ratio
CCCOn1c(CC)nc2ccc(C)cc21 | 12.5

test system: C8166; assay: Inhibitory activity against HIV-111B in C8166 cells; assay type: functional, cell-based; details: Homo sapiens

SMILES | EC50
CCCOn1c(CC)nc2c(C)cccc21 | 6 µM
CCCOn1c(CC)nc2ccc(C)cc21 | 1.6 µM
CCCn1c(SC)nc2c(CBr)cccc21 | 8 µM
CCCOn1c(CC)nc2ccccc21 | 2 µM
CCCOn1c(CC)nc2ccc(OC)cc21 | 3.2 µM
CCCOn1c(CC)nc2ccc(Cl)cc21 | 0.6 µM
CC(C)=CCN1Cc2cc(Cl)cc3[nH]c(=S)n(c23)C[C@@H]1C | 0.002 µM
CCCn1c(SC)nc2c(C)cccc21 | 4 µM
